Results as given in PMC9440176, “Novel benzylidene benzofuranone analogues as potential anticancer agents: design, synthesis and in vitro evaluation based on CDK2 inhibition assays” (3 Biotech, 2022).

Tests used:
[1] = DPPH. free radical scavenging assay
Experimental: DPPH. assay was performed using 96-well plate by serial dilution method. The dilution of methanolic stock solution of the test compounds and standard anti-oxidants was carried out to obtain concentration in the range of 3.9–1000 µM. Quercetin and ascorbic acid were used as standards. To a 100 μL of this solution, 100 μL of 200 µM DPPH^. in methanolic solution was added. The experiment was done in triplicate and the plate was then incubated for 30 min in the dark and later the absorbance was measured at 517 nm using Elisa reader. The percentage DPPH^. Scavenging was calculated using the formula, (Control Absorbance–Test Absorbance)*100/(Control Absorbance). The anti-oxidant activity of the test compounds was expressed in terms of concentration required for 50 percentage inhibition (IC50) (Collins [2005]).

HCT 116 = experiment: MTT cytotoxicity assay on HCT 116; assay type: cell-based, Human; conditions: 24 h, read-out: Inhibition of cell proliferation, IC50, HCT 116
Experimental: The monolayer cell culture was trypsinized and the cell count was adjusted to 5.0 × 10^5 cells/ml using respective media containing 10% FBS. To each well of the 96-well microtiter plate, 100 µL of the diluted cell suspension (50,000cells/well) was added. After 24 h, when a partial monolayer was formed, the supernatant was flicked off, the monolayer was then washed once again with the medium and 100 µL of different test concentrations of test drugs were added on to the partial monolayer in microtiter plates. The plates were then incubated at 37 °C for 24 h in 5% CO2 atmosphere. After incubation, the test solutions in the wells were discarded and 100 µL of MTT (5 mg/10 ml of MTT in PBS) was added to each well. The plates were then incubated for 4 h at 37 °C in 5% CO2 atmosphere. The supernatant was then removed and 100 µL of DMSO was added and the plates were gently shaken to solubilize the formed formazan. The absorbance was measured using a microtiter plate reader at a wavelength of 590 nm. The percentage growth inhibition was thus calculated using the following formula and the concentration of the test drug required to inhibit the cell growth by 50% (IC50) values is generated from the dose–response curves for each one of the cell lines (Meerloo et al. [2011]).
The test compounds were screened for their in vitro cytotoxicity by MTT assay against two cancer cell lines, namely MCF-7, HCT-116 and normal epithelial kidney cells (Vero). Doxorubicin was used as a reference standard.

HCT 116 cells = experiment: Apoptotic DNA fragmentation study; assay type: cell-based, Human
Experimental: Cells were seeded at a concentration of 1 × 10^6 per 35 mm dish and incubated at 37 °C/5% CO2 for 24 h. The confluent cells grown after 24 h of incubation were treated with sample concentrations at 10 μg/ml, 20 μg/ml and control (without sample). After the treatment, cells were trypsinized and both the adherent as well as floating cells were collected by centrifugation at 2000 rpm for 5 min. The cell pellet was later suspended in 0.5 ml lysis buffer (pH 7.8) [Tris–HCl 10 mM, pH 8; EDTA 20 mM, pH 8.0; TritonX-100 0.2% and 4 M NaCl], vortexed vigorously and incubated at 50 °C for 5 min. To the lysate, 0.5 ml of phenol: chloroform: isoamylalcohol was added and mixed for about 2–3 min. Further, it was centrifuged at 10,000 rpm for 15 min at 4 °C.The upper aqueous layer was taken in another tube to which, twice the volume of cold 100% ethanol was added along with 3 M sodium acetate (Final concentration of sodium acetate 0.3 M). It was incubated for 5–10 min at room temperature. Further, centrifuged again at 10,000 rpm for 20 min. After removing the supernatant, the DNA pellet was washed in 70% ethanol and centrifuged at 5000 rpm for the next 10 min. The supernatant was removed, the DNA pellet was air dried and was finally dissolved in TE buffer (Tris–HCl 10 mM, pH 7.4, EDTA 1 mM, pH 8.0) and separated by 2% agarose gel electrophoresis at 100 V for 50 min.

CDK2/Cyclin A = CDK2/Cyclin A (Homo sapiens, UniProt P24941); experiment: CDK2/cyclin A inhibitory assay, Z'-LYTE FRET kinase assay; assay type: biochemical; conditions: concentration of 100 micro molar; 1000 ng/ml kinase, 1000 µM ATP
Excerpt: Z’-LYTE® technology involves homogeneous assay design based on FRET and is a universal platform for both screening as well as profiling protein kinases. The assay uses a peptide substrate labeled with two different fluorophores, coumarin donor and fluorescein acceptor on each end. These two fluorophores make up a FRET pair, which allows the transfer of energy when both are present on the same molecule. The initial kinase reaction transfers the ϒ-phosphate of ATP to a tyrosine or serine/threonine residue on the substrate. In a secondary reaction, referred to as the development reaction, a site-specific protease recognizes and cleaves only non-phosphorylated peptide, while phosphorylated substrate remains uncleaved. […] Upon excitation of Coumarin at 400 nm, the FRET signal is measured as a ratio between the Coumarin donor emission at 445–460 nm and the fluorescein acceptor emission at 520–535 nm(Lebakken et al. [2007]).
Initial ten-fold and two-fold dilutions of Kinase and ATP concentrations were used to choose the optimal Kinase and ATP concentration based on the % Phosphorylation.
The assay was carried out according to the kit instructions (384 well format). Briefly, 5X kinase buffer [250 mM HEPES (pH 7.5), 50 mM MgCl2, 5 mM EGTA, 0.05% BRIJ-35] was diluted to 1X using distilled water. The phosphor peptide positive control (Z’-LYTE® Tyr 4 phospho-peptide) and the non-phosphorylated negative control (Z’-LYTE® Tyr 4 peptide) were then diluted to 1:500 with 1× kinase buffer to 2 μM. […] Working development solution was then made by diluting 12 μL of the provided stock solution with 388 μL of the provided development buffer. Aliquots (20 μL) of each peptide mixture were then added to the wells of a Corning 3914 solid white microplate in replicates of 8. The development reaction was initiated by the addition of 10 μL of working development-solution to all the wells. Further, the plates were allowed to incubate at room temperature for 60 min. Reactions were then stopped by the addition of 10 μL of stop solution (Jia et al. [2008]).
Reactions were quantitated using a Tecan Robotic Microplate Reader. Reader control, blank subtraction, ratio metric calculations and finally graph plotting were carried out using Gen5™ Data Analysis Software.
The CDK2/Cyclin A assay was carried out as per the manufacturer’s instruction using suitable controls and standard.
The inhibitory assay was carried out using the stock of 10 mM in DMSO. Samples were further serially diluted to obtain concentrations of 100 μM. The concentrations were chosen based on the IC50 values obtained in the MTT assay. A total of 23 analogues were selected for the assay based on their antiproliferative activity. Further, selected compounds were screened and tested against the target CDK2/Cyclin A, and their % phosphorylation and % inhibition were recorded.

Compound: COc1ccc(/C=C2\Oc3c(c(OC)cc(OC)c3C3=CCN(C(C)C)CC3)C2=O)cc1OC [NISOA4]
- IC50 [1]: 159 ± 0.45 µM
- IC50 (HCT 116): 21.2 µM
- DNA fragmentation on agarose gel (HCT 116 cells; 12.5 μM): smearing
- DNA fragmentation on agarose gel (HCT 116 cells; 25 μM): fragmentation in the form of DNA laddering
- % inhibition on CDK2/cyclin A (CDK2/Cyclin A): 42.787%
